The values that follow are results of earlier work, collected in US20050025723A1, “Sunburn treatment and sunburn prevention method” (priority 2000, published 2005).

“Also recorded” adds a separate entry of the source.

One data set relates to fever. To be noted: compared with parent peptide α-MSH or α-MSH(11-13); literature statements.
A further data set concerns inflammation. To be noted: in vitro and in vivo; compared with parent molecule or the L-form tripeptide; literature statements.
In a further data set the test system is learning and memory. To be noted: in vivo.
The subject of data set [1] is melanocytes and melanoma cells.

As to “8-13 sequence: α-MSH 8-13 sequence (RWGKPV; Designed polypeptide with anti-inflammatory, anti-bacterial, anti-fungal and antipyretic properties.)”, the “antipyretic potency / activity (reducing fever)” value in the data set on fever is given as “greater than that of the 11-13 sequence”.
On to “9-13 sequence: α-MSH 9-13 sequence (WGKPV; C-terminal sequences of alpha-MSH)”, for which, in the data set on fever, the “antipyretic potency / activity (reducing fever)” value is “almost devoid of activity”.
For the substance “10-13 sequence: α-MSH 10-13 sequence formed by addition of glycine to α-MSH(11-13) (GKPV; Designed polypeptide with anti-inflammatory, anti-bacterial, anti-fungal and antipyretic properties.)”, the “antipyretic potency / activity (reducing fever)” value in the data set with fever is reported as “slightly decreased potency”.
Ac-[D-K11]-α-MSH 11-13-NH2: in the data set with inflammation, the “anti-inflammatory activity / potency” value was “same general potency as the L-form of the tripeptide”.
As to MEHFRWG [α-MSH sequence (4-10)], the “antipyretic potency / activity (reducing fever)” value in the data set with fever was “little”. In addition, in the data set with learning and memory, the “learning and memory behavioral effects” value is “has learning and memory behavioral effects”. Moreover, the “anti-inflammatory activity / potency” value in the data set with inflammation is recorded as “little”.
Take [Nle^4,D-Phe^7]α-MSH: the “antipyretic potency / activity (reducing fever)” value in the data set with fever was “approximately ten times more potent than the parent peptide”. Moreover, the “biological activity on melanocytes and melanoma cells” value in data set [1] is “marked biological activity”.
Consider lysine-proline-valine [KPV], for which the “antipyretic potency / activity (reducing fever)” value in the data set with fever is listed as “parallel those of the parent molecule”. The “anti-inflammatory activity / potency” value in the data set with inflammation was “parallel those of the parent molecule; also recorded: effective over a very broad range of concentrations, including picomolar concentrations”.
